In US9771343B2, “2-alkyl-or-aryl-substituted tanshinone derivatives, and preparation method and application thereof” (Hangzhou Bensheng Pharmaceutical Co., Ltd., priority 2011, dated 2017):
≈ marks a conversion by molar mass, not a printed value.

Experiments:
[1] = test system: K562/adr (drug-resistant, chronic myeloid leukemia, CML); experiment: MTT cell growth inhibition, K562/adr leukemia cells, 72 h; assay type: cell-based; details: Homo sapiens, K562/Adr
Description: (§1) The standard sample of tanshinone I (TA) and the 2-alkyl- or 2-aromatic-substituted tanshinone I derivatives of the present invention are sufficiently dissolved in dimethylsulfoxide to produce a stock solution of 10 mg/mL, which is refrigerated at 4° C. and stored in dark, and is diluted with cell culture medium to a desired concentration prior to experimentation.
(§2) Obtaining 6000 well-growing leukemia cells and inoculating them into wells of a 96-well cell culture plate. The culture medium is the RPMI-1640 cell culture medium containing 10% fetal bovine serum. After adding on the second day the 2-alkyl- or 2-aromatic-substituted tanshinone I derivatives of different concentrations and mixing uniformly, placing the plate in a carbon dioxide cell incubator (5% CO2) at 37° C. and incubated for 72 hours. Then the viable cell concentration is determined by MTT method. In this experiment, the cell viability in control group (not treated with any compound) is set as 100%, and the cell viability (%) after treatment by the compounds and the half maximum inhibitory concentration for the leukemia cell at 72 hours (IC50 value of 72 hours, μg/mL) are calculated.

[2] = test system: Kasumi-1 (acute myeloid leukemia M2 type, AML-M2); experiment: MTT cell growth inhibition, Kasumi-1 leukemia cells, 72 h; assay type: cell-based; details: Homo sapiens, Kasumi-1, 72 h
Description: as §1, §2

[3] = test system: NB4 (acute promyelocytic leukemia, AML); experiment: MTT cell growth inhibition, NB4 leukemia cells, 72 h; assay type: cell-based
Description: as §1, §2

[4] = test system: Jurkat (acute lymphoblastic leukemia, ALL); experiment: MTT cell growth inhibition, Jurkat leukemia cells, 72 h; assay type: cell-based; details: Homo sapiens, 72 h
Description: as §1, §2

[5] = test system: H9 (acute lymphoblastic leukemia, ALL); experiment: MTT cell growth inhibition, H9 leukemia cells, 72 h; assay type: cell-based
Description: as §1, §2

[6] = test system: RPMI8226 (multiple myeloma); experiment: MTT cell growth inhibition, RPMI8226 multiple myeloma cells, 72 h; assay type: cell-based, human; details: Homo sapiens, RPMI 8226, 72 h
Description: as §1, §2

A549 (human lung cancer) = experiment: MTT cell growth inhibition, A549 cells, 72 h; assay type: cell-based; details: Homo sapiens, A549, 72 h
Description: as §1, with “with a” for “with”, “to the” for “to a”
(§3) Obtaining 6000 well-growing human solid tumor cells and inoculating them into wells of a 96-well cell culture plate. The culture medium is DMEM High Glucose cell culture medium containing 10% fetal bovine serum. The plate is placed in a carbon dioxide cell incubator (5% CO2) at 37° C. and incubated for 24 hours. After adding the 2-alkyl- or 2-aromatic-substituted tanshinone I derivatives of different concentrations and mixing uniformly, the plate is placed in a carbon dioxide cell incubator (5% CO2) at 37° C. and incubated for 72 hours. Then the viable cell concentration is determined by MTT method. In this experiment, the cell viability in control group (not treated with any compound) is set as 100%, and the cell viability (%) after treatment by the compounds and the half maximum inhibitory concentration for the leukemia cell at 72 hours (IC50 value of 72 hours, μg/mL) are calculated.

[7] = test system: PANC-1 (pancreatic cancer); experiment: MTT cell growth inhibition, PANC-1 cells, 72 h; assay type: cell-based, human; details: Homo sapiens, PANC-1, 72 h
Description: as §1, with “with a” for “with”, “to the” for “to a”
as §3

[8] = test system: Becap37 (human breast cancer cell); experiment: MTT cell growth inhibition, Becap37 cells, 72 h; assay type: cell-based
Description: as §1, with “with a” for “with”, “to the” for “to a”
as §3

MG63 (osteosarcoma) = experiment: MTT cell growth inhibition, MG63 cells, 72 h; assay type: cell-based, human; details: Homo sapiens, MG-63, 72 h
Description: as §1, with “with a” for “with”, “to the” for “to a”
as §3

[9] = test system: Hep G2 (human liver cancer cell); experiment: MTT cell growth inhibition, Hep G2 cells, 72 h; assay type: cell-based
Description: as §1, with “with a” for “with”, “to the” for “to a”
as §3

[10] = test system: RKO (human colon adenocarcinoma cell); experiment: MTT cell growth inhibition, RKO cells, 72 h; assay type: cell-based
Description: as §1, with “with a” for “with”, “to the” for “to a”
as §3

[11] = test system: U87 MG (malignant glioma cell); experiment: MTT cell growth inhibition, U87 MG cells, 72 h; assay type: cell-based, human
Description: as §1, with “with a” for “with”, “to the” for “to a”
as §3

[12] = test system: Hela (human cervical cancer cell); experiment: MTT cell growth inhibition, Hela cells, 72 h; assay type: cell-based
Description: as §1, with “with a” for “with”, “to the” for “to a”
as §3

[13] = test system: CaES-17 (esophageal cancer cell); experiment: MTT cell growth inhibition, CaES-17 cells, 72 h; assay type: cell-based, human; details: Homo sapiens, CaEs17, CaEs-17, 72 h
Description: as §1, with “with a” for “with”, “to the” for “to a”
as §3

[14] = test system: CNE (nasopharyngeal carcinoma cell); experiment: MTT cell growth inhibition, CNE cells, 72 h; assay type: cell-based, human; details: Homo sapiens, CNE, 72 h
Description: as §1, with “with a” for “with”, “to the” for “to a”
as §3

[15] = test system: Hep-2 (laryngeal carcinoma); experiment: MTT cell growth inhibition, Hep-2 cells, 72 h; assay type: cell-based, human; details: Homo sapiens, HEp-2, 72 h
Description: as §1, with “with a” for “with”, “to the” for “to a”
as §3

[16] = test system: MGC 803 (human gastric cancer cell); experiment: MTT cell growth inhibition, MGC 803 cells, 72 h; assay type: cell-based
Description: as §1, with “with a” for “with”, “to the” for “to a”
as §3

PC-3 (prostate cancer) = experiment: MTT cell growth inhibition, PC-3 cells, 72 h; assay type: cell-based, human
Description: as §1, with “with a” for “with”, “to the” for “to a”
as §3

[17] = test system: SK-OV-3 (ovarian cancer cell); experiment: MTT cell growth inhibition, SK-OV-3 cells, 72 h; assay type: cell-based, human
Description: as §1, with “with a” for “with”, “to the” for “to a”
as §3

IC50 ([1]; read-out: IC50): 1.08 µg/mL (≈ 2.72 µM)
IC90 ([1]; read-out: IC90): 3.6 µg/mL (≈ 9.08 µM)
IC50 ([2]; read-out: IC50): 3.85 µg/mL (≈ 9.71 µM)
IC90 ([2]; read-out: IC90): 17.5 µg/mL (≈ 44.1 µM)
IC50 ([3]; NB4, 72 h, read-out: IC50): 0.2 µg/mL (≈ 0.505 µM)
IC90 ([3]; NB4, 72 h, read-out: IC90): 1 µg/mL (≈ 2.52 µM)
IC50 ([4]; read-out: IC50): 0.84 µg/mL (≈ 2.12 µM)
IC90 ([4]; read-out: IC90): > 16 µg/mL
IC50 ([5]; H9, 72 h, read-out: IC50): 0.7 µg/mL (≈ 1.77 µM)
IC90 ([5]; H9, 72 h, read-out: IC90): 1.98 µg/mL (≈ 4.99 µM)
IC50 ([6]; read-out: IC50): 1 µg/mL (≈ 2.52 µM)
IC90 ([6]; read-out: IC90): 16.6 µg/mL (≈ 41.8 µM)
IC50 (A549 (human lung cancer); read-out: IC50): 16.6 µg/mL (≈ 41.9 µM)
IC90 (A549 (human lung cancer); read-out: IC90): > 16 µg/mL
IC50 ([7]; read-out: IC50): 5.48 µg/mL (≈ 13.8 µM)
IC90 ([7]; read-out: IC90): > 16 µg/mL
IC50 ([8]; Homo sapiens, Becap-37, 72 h, read-out: IC50): 1.28 µg/mL (≈ 3.23 µM)
IC90 ([8]; Homo sapiens, Becap-37, 72 h, read-out: IC90): > 16 µg/mL
IC50 (MG63 (osteosarcoma); read-out: IC50): 1.05 µg/mL (≈ 2.65 µM)
IC90 (MG63 (osteosarcoma); read-out: IC90): > 16 µg/mL
IC50 ([9]; Homo sapiens, HepG2, Hep G2, 72 h, read-out: IC50): 1.94 µg/mL (≈ 4.89 µM)
IC90 ([9]; Homo sapiens, HepG2, Hep G2, 72 h, read-out: IC90): > 16 µg/mL
IC50 ([10]; Homo sapiens, RKO, 72 h, read-out: IC50): 1.53 µg/mL (≈ 3.86 µM)
IC90 ([10]; Homo sapiens, RKO, 72 h, read-out: IC90): > 16 µg/mL
IC50 ([11]; Homo sapiens, U-87 MG, U87-MG, 72 h, read-out: IC50): 0.5 µg/mL (≈ 1.26 µM)
IC90 ([11]; Homo sapiens, U-87 MG, U87-MG, 72 h, read-out: IC90): > 16 µg/mL
IC50 ([12]; Homo sapiens, HeLa, 72 h, read-out: IC50): 0.5 µg/mL (≈ 1.26 µM)
IC90 ([12]; Homo sapiens, HeLa, 72 h, read-out: IC90): 16 µg/mL (≈ 40.4 µM)
IC50 ([13]; read-out: IC50): 6.83 µg/mL (≈ 17.2 µM)
IC90 ([13]; read-out: IC90): > 16 µg/mL
IC50 ([14]; read-out: IC50): 15 µg/mL (≈ 37.8 µM)
IC90 ([14]; read-out: IC90): > 16 µg/mL
IC50 ([15]; read-out: IC50): 8 µg/mL (≈ 20.2 µM)
IC90 ([15]; read-out: IC90): > 16 µg/mL
IC50 ([16]; Homo sapiens, MGC-803, 72 h, read-out: IC50): 0.38 µg/mL (≈ 0.959 µM)
IC90 ([16]; Homo sapiens, MGC-803, 72 h, read-out: IC90): 3.3 µg/mL (≈ 8.32 µM)
IC50 (PC-3 (prostate cancer); Homo sapiens, PC-3, 72 h, read-out: IC50): 6.49 µg/mL (≈ 16.4 µM)
IC90 (PC-3 (prostate cancer); Homo sapiens, PC-3, 72 h, read-out: IC90): > 16 µg/mL
IC50 ([17]; Homo sapiens, SK-OV-3, 72 h, read-out: IC50): 11.1 µg/mL (≈ 28 µM)
IC90 ([17]; Homo sapiens, SK-OV-3, 72 h, read-out: IC90): > 16 µg/mL
Structure (SMILES): Cc1c(-c2ccc(C(=O)O)cc2)oc2c1C(=O)C(=O)c1c-2ccc2c(C)cccc12 [BS-TA-302]
improvement of anti-NB4 activity as compared with tanshinone I per se ([3]; NB4, vs tanshinone I): ~5 fold
improvement of anti-H9 activity as compared with tanshinone I per se ([5]; H9, vs tanshinone I): ~5 fold
anti-Becap37 activity (in words) ([8]; Table 2): superior to that of tanshinone I per se
anti-Hep G2 activity (in words) ([9]; Table 2): superior to that of tanshinone I per se
anti-RKO activity (in words) ([10]; Table 2): superior to that of tanshinone I per se
anti-U87 MG activity (in words) ([11]; Table 2): superior to that of tanshinone I per se
anti-Hela activity (in words) ([12]; Table 2): superior to that of tanshinone I per se
anti-MGC 803 activity (in words) ([16]; Table 2): significantly improves
anti-PC-3 activity (in words) (PC-3 (prostate cancer); Table 2): significantly improves
anti-SK-OV-3 activity (in words) ([17]; Table 2): superior to that of tanshinone I per se
